Assay results from patent publication US10906910B2, “Substituted bicyclic pyrimidine compounds with tubulin and multiple receptor inhibition” (Duquesne University of the Holy Spirit, priority 2014, dated 2021).

Key:
[1] = system: bovine brain tubulin; test: inhibition of tubulin assembly; format: biochemical
[2] = system: wild type HeLa cells; test: HeLa cytotoxicity, wild type; format: cell-based; settings: Homo sapiens
[3] = system: OVCAR-8; test: NCI 60 panel, Ovarian cancer OVCAR-8; format: cell-based; settings: Homo sapiens, read-out: Tumor cell inhibitory activity (NCI) GI50
[4] = system: IGROVI; test: NCI 60 panel, Ovarian cancer IGROVI; format: cell-based; settings: read-out: Tumor cell inhibitory activity (NCI) GI50
[5] = system: NCI 60 tumor cell line panel; test: NCI 60 tumor cell line panel, overall; format: cell-based
[6] = system: U251; test: NCI 60 panel, CNS Cancer U251; format: cell-based; settings: Homo sapiens, U-251, read-out: Tumor cell inhibitory activity (NCI) GI50
[7] = system: BT-549; test: NCI 60 panel, Breast Cancer BT-549; format: cell-based; settings: Homo sapiens, read-out: Tumor cell inhibitory activity (NCI) GI50
[8] = system: MDA-MB-231/ATCC; test: NCI 60 panel, Breast Cancer MDA-MB-231/ATCC; format: cell-based; settings: Homo sapiens, read-out: Tumor cell inhibitory activity (NCI) GI50
[9] = system: UO-31; test: NCI 60 panel, Renal Cancer UO-31; format: cell-based; settings: Homo sapiens, read-out: Tumor cell inhibitory activity (NCI) GI50
[10] = system: NCI-H522; test: NCI 60 panel, NSCLC NCI-H522; format: cell-based; settings: Homo sapiens, read-out: Tumor cell inhibitory activity (NCI) GI50
[11] = system: SR; test: NCI 60 panel, Leukemia SR; format: cell-based; settings: Homo sapiens, read-out: Tumor cell inhibitory activity (NCI) GI50
[12] = system: CCRF-CEM; test: NCI 60 panel, Leukemia CCRF-CEM; format: cell-based; settings: Homo sapiens, read-out: Tumor cell inhibitory activity (NCI) GI50
[13] = system: HCT-15; test: NCI 60 panel, Colon Cancer HCT-15; format: cell-based; settings: Homo sapiens, read-out: Tumor cell inhibitory activity (NCI) GI50
[14] = system: NCI-H226; test: NCI 60 panel, NSCLC NCI-H226; format: cell-based; settings: Homo sapiens, read-out: Tumor cell inhibitory activity (NCI) GI50

How did the IC50 ([1]; bovine tubulin) turn out when `COc1ccc(N(C)c2nc(C)nc3c(Cc4ccccc4)cn(C)c23)cc1` [Compound 4, 7-Benzyl-N-(4-methoxyphenyl)-N,2,5-trimethyl-5H-pyrrolo[3,2-d]pyrimidin-4-amine] was run?
Its IC50 is 480 ± 8 nM.

What about the “inhibition of bovine tubulin assembly, in words” value ([1]; compared with combretastatin A-4) of the same compound?
The value was “effective and potent inhibitors”.

What about the IC50 [2] of the same compound?
Its IC50 is 14 ± 2 nM.

And the GI50 [3]?
The GI50 was 49.1 nM.

And the GI50 [4]?
The GI50 was 95.8 nM.

And the “GI50 across the NCI 60 tumor cell line panel, in words” value [5]?
The value was 2- to 3-digit nanomolar.

And the GI50 [6]?
The GI50 was 44.3 nM.

And the GI50 [7]?
The GI50 was 48.2 nM.

And the GI50 [8]?
Its GI50 is 63.7 nM.

And the GI50 [9]?
Its GI50 is 209 nM.

And the GI50 [10]?
Its GI50 is 23.9 nM.

And the GI50 [11]?
The GI50 was 33.8 nM.

And the GI50 [12]?
Its GI50 is 33.5 nM.

What about the GI50 [13] of the same compound?
Its GI50 is 38.1 nM.

What about the GI50 [14] of the same compound?
The GI50 was 304 nM.
